In patent EP2377861B1, “Water-soluble bis-triazinyl-pyridines, bipyridines and terpyridines, synthesis and use of same” (Karlsruher Institut für Technologie, priority 2010, dated 2011):

What was measured:
[1] = Back-extraction from loaded TODGA organic phase (simulated PUREX raffinate) into aqueous complexing agent solution; conditions: after back-extraction into 10 mmol/L SO3-Ph-BTP in water
From the text: (§1) D2EHPA bestimmt. Aus allen Versuchen wurden die Verteilungsverhältnisse (Verhältnis der organischen zur wässrigen Konzentration) von Am(III) und Eu(III) mittels Gamma-Spektrometrie bestimmt. Die Berechnung der Verteilungsverhältnisse DM ergibt sich aus den Zählraten des Gammazählers, welcher die radioaktiven ^241Am (III) - und ^152Eu(III) - Isotope in volumengleichen Proben der wässrigen bzw. der organischen Phase erfasst gem. der Gleichung DM=[M]org/[M]aq, wobei die Konzentration des Metalls M aus [M]=Zählrate/Volumen berechnet wird.
Einem inaktiven Simulat eines PUREX-Raffinats wurden ^241Am(III) und ^I52Eu(III) (je ca. 1 kBq/mL) zugegeben. Es wurde in eine organische Phase bestehend aus (0.2 mol/L TODGA + 5 % vol. 1-Octanol in Kerosin) extrahiert.

[2] = Extraction with TODGA from HNO3, complexing agent in aqueous phase, distribution ratio by gamma spectrometry; conditions: for DEu(III) / DAm(III): 0.2 mol/L TODGA + 5 % vol. 1-Octanol in Kerosin; for SFEu(III)/Am(III): separation factor DEu(III)/DAm(III)
From the text: as §1
Es wurden […] und ^152Eu(III) (je ca. 1 kBq/mL) aus 0.09 / 0.18 / 0.44 / 0.88 / 1.8 mol/L HNO3 in eine organische Phase bestehend aus (0.2 mol/L TODGA + 5 % vol. 1-Octanol in Kerosin) extrahiert.
Es wurden ^241Am(III) und ^152Eu(III) (je ca. 1 kBq/mL) aus 0.5 mol/L HNO3 in eine organische Phase bestehend aus (0.2 mol/L TODGA + 5 % vol. 1-Octanol in Kerosin) extrahiert. Die wässrige Phase enthielt entweder 0 mmol/L oder 10 mmol/L SO3-Ph-BTBP.

[3] = Extraction with D2EHPA from HNO3, complexing agent in aqueous phase, distribution ratio by gamma spectrometry; conditions: for DAm(III) / DEu(III): 10 mmol/L SO3-Ph-BTP in aqueous phase, 0.1 mol/L D2EHPA in Kerosin; for SFEu(III)/Am(III): separation factor DEu(III)/DAm(III), D2EHPA
From the text: as §1
Es wurden ^241Am(III) und ^152Eu(III) (je ca. 1 kBq/mL) aus 0.045 / 0.09 / 0.18 / 0.44 mol/L HNO3 in eine organische Phase bestehend aus (0.1 mol/L D2EHPA in Kerosin) extrahiert.

Solubility in water = type: physicochemical
[4] = loaded 0.2 mol/L TODGA + 5 % vol. 1-Octanol in Kerosin
[5] = 10 mmol/L SO3-Ph-BTBP in aqueous phase, 0.5 mol/L HNO3

Which “DAm(III)” value [1, 4] does the source give for “2,6-Bis(5,6-di(sulfophenyl)-1,2,4-triazin-3-yl)pyridine [SO3-Ph-BTP]” here?
The value was 0.059.

What about the “DEu(III)” value [1, 4] of the same substance?
Its value is 49.

And the “Trennfaktor SFEu(III)/Am(III)” value ([1]; loaded TODGA phase)?
Its value is 830.

And the “DEu(III)” value ([2]; 10 mmol/L SO3-Ph-BTP in aqueous phase, 0,09 mol/L HNO3)?
The value was 1.2.

What about the “DEu(III)” value ([2]; 10 mmol/L SO3-Ph-BTP in aqueous phase, 0,18 mol/L HNO3) of the same substance?
The value was 11.9.

And the “DEu(III)” value ([2]; 10 mmol/L SO3-Ph-BTP in aqueous phase, 0,44 mol/L HNO3)?
Its value is 180.

And the “DEu(III)” value ([2]; 10 mmol/L SO3-Ph-BTP in aqueous phase, 0,88 mol/L HNO3)?
The value was > 10^3.

And the “DEu(III)” value ([2]; 10 mmol/L SO3-Ph-BTP in aqueous phase, 1,8 mol/L HNO3)?
The value was > 10^3.

What about the “Trennfaktor SFEu(III)/Am(III)” value ([2]; 10 mmol/L SO3-Ph-BTP, ca. 0.1-0.5 mol/L HNO3, TODGA) of the same substance?
The value was 500-1000.

What about the “DAm(III)” value ([2]; 10 mmol/L complexing agent in aqueous phase, 0,09 mol/L HNO3) of the same substance?
The value was 1.1·10^-3.

And the “DAm(III)” value ([2]; 10 mmol/L complexing agent in aqueous phase, 0,18 mol/L HNO3)?
The value was 0.014.

What about the “DAm(III)” value ([2]; 10 mmol/L complexing agent in aqueous phase, 0,44 mol/L HNO3) of the same substance?
Its value is 0.35.

And the “DAm(III)” value ([2]; 10 mmol/L complexing agent in aqueous phase, 0,88 mol/L HNO3)?
Its value is 4.5.

What about the “DAm(III)” value ([2]; 10 mmol/L complexing agent in aqueous phase, 1,8 mol/L HNO3) of the same substance?
The value was 90.

What about the “SFEu(III)/Am(III)” value ([2]; 10 mmol/L complexing agent, 0,09 mol/L HNO3, TODGA) of the same substance?
The value was 1100.

What about the “SFEu(III)/Am(III)” value ([2]; 10 mmol/L complexing agent, 0,18 mol/L HNO3, TODGA) of the same substance?
The value was 850.

What about the “SFEu(III)/Am(III)” value ([2]; 10 mmol/L complexing agent, 0,44 mol/L HNO3, TODGA) of the same substance?
The value was 510.

And the “SFEu(III)/Am(III)” value ([2]; 10 mmol/L complexing agent, 0,88 mol/L HNO3, TODGA)?
The value was > 220.

What about the “SFEu(III)/Am(III)” value ([2]; 10 mmol/L complexing agent, 1,8 mol/L HNO3, TODGA) of the same substance?
The value was > 11.

And the “DAm(III)” value ([3]; 0.045 mol/L HNO3)?
Its value is 1.10^-3.

What about the “DEu(III)” value ([3]; 0.045 mol/L HNO3) of the same substance?
The value was 5.3.

What about the “DAm(III)” value ([3]; 0.09 mol/L HNO3) of the same substance?
The value was 4.10^-4.

What about the “DEu(III)” value ([3]; 0.09 mol/L HNO3) of the same substance?
Its value is 1.4.

And the “DAm(III)” value ([3]; 0.18 mol/L HNO3)?
The value was 5.10^-5.

What about the “DEu(III)” value ([3]; 0.18 mol/L HNO3) of the same substance?
Its value is 0.37.

What about the “DAm(III)” value ([3]; 0.44 mol/L HNO3) of the same substance?
Its value is “< d.l”.

What about the “DEu(III)” value ([3]; 0.44 mol/L HNO3) of the same substance?
Its value is 0.06.

And the “Trennfaktor SFEu(III)/Am(III)” value ([3]; 10 mmol/L SO3-Ph-BTP, D2EHPA in Kerosin)?
The value was > 3000.

And the “SFEu(III)/Am(III)” value ([3]; 10 mmol/L SO3-Ph-BTP, 0.045 mol/L HNO3)?
The value was 5200.

What about the “SFEu(III)/Am(III)” value ([3]; 10 mmol/L SO3-Ph-BTP, 0.09 mol/L HNO3) of the same substance?
Its value is 3400.

What about the “SFEu(III)/Am(III)” value ([3]; 10 mmol/L SO3-Ph-BTP, 0.18 mol/L HNO3) of the same substance?
Its value is 7000.

With “6,6'-Bis(5, 6-di(sulfophenyl)-1, 2, 4-triazin-3-yl)-2,2'-bipyridine [SO3-Ph-BTBP]” as the substance, how does the “Löslichkeit in Wasser” value (Solubility in water) read?
The value was > 0.1 mol/L.

What about the “DAm(III)” value [2, 5] of the same substance?
The value was 0.33.

And the “DEu(III)” value [2, 5]?
The value was 150.

And the “SFEu(III)/Am(III)” value ([2]; 10 mmol/L SO3-Ph-BTBP, 0.5 mol/L HNO3, TODGA)?
The value was 450.
